Assay results published in patent US20100216732A1, “Azithromycin for the treatment of nodular acne” (priority 2006, published 2010).
Several values for one entry are separate records, joined by “and”; a condition that tells them apart may be missing. Equal values may be shown once.

Legend:
[1] = test system: severe acne vulgaris with multiple nodules; test: Open label clinical study of daily or pulsed oral azithromycin, nodule counts over 3 months; format: in vivo, human; conditions: for Nodules in the 2 non-responding patients two months after initiation of therapy: single patients
From the text: The invention is further illustrated by the following non-limiting examples. In the examples, patients included in the study were male or female subjects of any race, 16 years of age or older. presenting with 20-60 inflammatory lesions (papules or pustules), 20 to 150 non-inflammatory lesions (comedones or whiteheads), and 3 to 10 nodules. Patients having severe acne vulgaris with multiple nodules were enrolled in an open label clinical study in which each patient received a daily oral dose of 250 mg of azithromycin for the 3-month duration of the study. Lesion counts were recorded at baseline before the initiation of treatment and at 1, 2, and 3 months following initiation of treatment. […] These 2 patients had 9 and 8 nodules, respectively, at baseline and 8 and 13 nodules, respectively two months after initiation of therapy. Of the favorable responders, two patients who began the study with 3 nodules had 2 nodules at the end of the three month study. The remaining 14 patients who responded favorably to treatment had on average 6.7 nodules at baseline (range 4 to 10 nodules) and improved to having no nodules (10 patients) or at most 1 nodule (4 patients) by the end of the three month course of treatment. Another set of patients with severe acne vulgaris was enrolled in an open label clinical study as in Example 1, except that each patient received a daily oral dose of 250 mg of azithromycin for one week followed by one week of no azithromycin, which cycle was repeated for the 3-month duration of the study. […] These 2 patients had 6 and 10 nodules, respectively, at baseline and 5 and 8 nodules, respectively, two months after initiation of therapy. Three patients had partial clearing of nodules during the study. These patients had 9, 10, and 6 nodules, respectively, at baseline and 3, 4, and 2 nodules, respectively, at the end of the study. Another set of patients with severe acne vulgaris was enrolled in an open label clinical study as in Example 1, except that each patient received a daily oral dose of 125 mg of azithromycin for the 3-month duration of the study. […] These 2 patients had 8 and 3 nodules, respectively, at baseline and 10 and 4 nodules, respectively two months after initiation of therapy. The 18 patients who responded favorably to treatment had on average 5.1 nodules at baseline (range 3 to 8 nodules) and improved to having no nodules (13 patients) or at most 1 nodule (5 patients) at the end of the three month course of treatment.

[2] = test system: lesions of inflammatory acne; conditions: pulse-dose regimen, three-times-weekly, versus daily doxycycline, erythromycin, minocycline, tetracycline; cited from earlier work
[3] = test system: moderate to severe inflammatory acne; conditions: 500 mg for three consecutive days in a 10 day cycle, with topical erythromycin; cited from earlier work
nodular cystic acne = conditions: Pigatto study, in words; cited from earlier work
[4] = Example 1, 250 mg/day oral, 3 months, 18 patients
[5] = Example 2, 250 mg/day every other week, 3 months, 18 patients
[6] = Example 3, 125 mg/day oral, 3 months, 20 patients
[7] = Total Examples 1 to 3, 56 patients

With `CC[C@H]1OC(=O)[C@H](C)[C@@H](O[C@H]2C[C@@](C)(OC)[C@@H](O)[C@H](C)O2)[C@H](C)[C@@H](O[C@@H]2O[C@H](C)C[C@H](N(C)C)[C@H]2O)[C@](C)(O)C[C@@H](C)CN(C)[C@H](C)[C@@H](O)[C@]1(C)O` [azithromycin, 9-deoxo-9a-aza-9a-methyl-9a-homoerythromycin A] the “Number of patients that did not respond favorably to treatment” value ([1]; Example 1, 250 mg daily oral, of 18 patients in study longer than one month) was 2, the “Number of patients improved to at most 1 nodule by end of three month treatment” value ([1]; Example 1, 250 mg daily, of remaining 14 favorable responders, average 6.7 nodules at baseline) was 4 patients and the “Number of patients improved to having no nodules by end of three month treatment” value ([1]; Example 1, 250 mg daily, of remaining 14 favorable responders, average 6.7 nodules at baseline (range 4 to 10)) was 10 patients. For the same molecule, the “Nodules in the 2 non-responding patients two months after initiation of therapy” value ([1]; Example 1, 250 mg daily, 9 and 8 nodules at baseline, respectively) was 8 nodules and 13 nodules, the “Nodules at the end of the three month study in two favorable responders” value ([1]; Example 1, 250 mg daily, two patients who began with 3 nodules) was 2 nodules and the “Number of good responders” value [1, 4] was 16. The “Percentage of good responders” value [1, 4] was 88.9%, the “Percentage of nodules cleared in good responders” value (from here on “Percentage … in good responders”) ([1]; Example 1, 250 mg/day, 16 good responders) was 92.0% and the “Nodules in good responders after treatment” value (from here on “Nodules in good responders”) ([1]; Example 1, 250 mg/day, 16 good responders, nodules before 100) was 8. The “Percentage of nodules cleared” value ([1]; Example 1, 250 mg/day, all 18 patients) was 75.2%, the “Nodules remaining after treatment” value ([1]; Example 1, 250 mg/day, all 18 patients, number of nodules before 117) was 29 and the “Number of patients improved to at most 1 nodule at end of three month treatment” value ([1]; Example 2, 250 mg daily every other week, of remaining 13 favorable responders, average 6.2 nodules at baseline) was 3 patients. For the same molecule, the “Number of patients improved to having no nodules at end of three month treatment” value ([1]; Example 2, 250 mg daily every other week, of remaining 13 favorable responders, average 6.2 nodules at baseline (range 3 to 10)) was 10 patients, the “Nodules in the 2 non-responding patients two months after initiation of therapy” value ([1]; Example 2, 250 mg daily every other week, 6 and 10 nodules at baseline, respectively) was 5 nodules and 8 nodules and the “Nodules at the end of the study in three patients with partial clearing” value ([1]; Example 2, 250 mg daily every other week, single patients, 9, 10 and 6 nodules at baseline, respectively) was 3 nodules and 4 nodules and 2 nodules. For the same molecule, the “Number of patients that did not respond favorably to treatment” value ([1]; Example 2, 250 mg daily one week on, one week off, of 18 patients) was 2, the “Number of good responders” value [1, 5] was 16 and the “Percentage of good responders” value [1, 5] was 88.9%. For the same molecule, the “Percentage … in good responders” value ([1]; Example 2, 250 mg/day every other week, 16 good responders) was 87.9%, the “Nodules in good responders” value ([1]; Example 2, 250 mg/day every other week, 16 good responders, nodules before 99) was 12 and the “Percentage of nodules cleared” value ([1]; Example 2, 250 mg/day every other week, all 18 patients) was 78.3%. For the same molecule, the “Nodules remaining after treatment” value ([1]; Example 2, 250 mg/day every other week, all 18 patients, number of nodules before 115) was 25, the “Number of patients that did not respond favorably to treatment” value ([1]; Example 3, 125 mg daily oral, of 20 patients) was 2 and the “Number of patients improved to at most 1 nodule at end of three month treatment” value ([1]; Example 3, 125 mg daily, of 18 favorable responders, average 5.1 nodules at baseline) was 5 patients. For the same molecule, the “Number of patients improved to having no nodules at end of three month treatment” value ([1]; Example 3, 125 mg daily, of 18 favorable responders, average 5.1 nodules at baseline (range 3 to 8)) was 13 patients, the “Nodules in the 2 non-responding patients two months after initiation of therapy” value ([1]; Example 3, 125 mg daily, 8 and 3 nodules at baseline, respectively) was 10 nodules and 4 nodules and the “Number of good responders” value [1, 6] was 18. For the same molecule, the “Percentage of good responders” value [1, 6] was 90.0%, the “Percentage … in good responders” value ([1]; Example 3, 125 mg/day, 18 good responders) was 94.6% and the “Nodules in good responders” value ([1]; Example 3, 125 mg/day, 18 good responders, nodules before 92) was 5. For the same molecule, the “Percentage of nodules cleared” value ([1]; Example 3, 125 mg/day, all 20 patients) was 81.6%, the “Nodules remaining after treatment” value ([1]; Example 3, 125 mg/day, all 20 patients, number of nodules before 103) was 19 and the “Nodules in good responders” value ([1]; Total Examples 1 to 3, 50 good responders, nodules before 291) was 25. The “Number of good responders” value [1, 7] was 50, the “Percentage of nodules cleared” value [1, 7] was 78.2% and the “Nodules remaining after treatment” value ([1]; Total Examples 1 to 3, 56 patients, number of nodules before 335) was 73. For the same molecule, the “Efficacy in treating nodular acne vulgaris, including severe nodular acne vulgaris” value ([1]; systemic administration, Examples 1 to 3) was “highly efficacious”, the “Efficacy in treating lesions of inflammatory acne” value [2] was “as effective as other antibiotics tested” and the “Efficacy in treating moderate to severe acne vulgaris” value [3] was “effective”.

For `CC1=C(/C=C/C(C)=C/C=C/C(C)=C\C(=O)O)C(C)(C)CCC1` [isotretinoin], the “Efficacy in treating nodular cystic acne” value (nodular cystic acne) is listed as “highly efficacious”.
